The structures appear in SMILES notation.

The record followed here is patent US10160747B2, “Compounds and methods for kinase modulation, and indications therefor” (Plexxikon Inc., priority 2016, dated 2018).

In assay [1] the test system is MOLM-14 D835Y (endogenous FLT3 ITD and transfected FLT3 D835Y). In words: MOLM-14 D835Y cell proliferation assay (CellTiter-Glo). It counts as cell-based. Conditions: Homo sapiens, MOLM-14, 72 h; 3 d growth, GMean. The method in brief:
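Three-day proliferation at 37 °C/5% CO2 of FLT3-ITD MOLM-14 lines with D835Y or F691L mutation, seeded 1×10^4 per well. Compounds at eight points, top 1 μM final, 0.2% DMSO. ATP luminescence (CellTiter-Glo) gives IC50.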

The next assay concerns the target T1, FLT3-ITD (Homo sapiens, UniProt P36888).
T1 sequence (P36888 1-993): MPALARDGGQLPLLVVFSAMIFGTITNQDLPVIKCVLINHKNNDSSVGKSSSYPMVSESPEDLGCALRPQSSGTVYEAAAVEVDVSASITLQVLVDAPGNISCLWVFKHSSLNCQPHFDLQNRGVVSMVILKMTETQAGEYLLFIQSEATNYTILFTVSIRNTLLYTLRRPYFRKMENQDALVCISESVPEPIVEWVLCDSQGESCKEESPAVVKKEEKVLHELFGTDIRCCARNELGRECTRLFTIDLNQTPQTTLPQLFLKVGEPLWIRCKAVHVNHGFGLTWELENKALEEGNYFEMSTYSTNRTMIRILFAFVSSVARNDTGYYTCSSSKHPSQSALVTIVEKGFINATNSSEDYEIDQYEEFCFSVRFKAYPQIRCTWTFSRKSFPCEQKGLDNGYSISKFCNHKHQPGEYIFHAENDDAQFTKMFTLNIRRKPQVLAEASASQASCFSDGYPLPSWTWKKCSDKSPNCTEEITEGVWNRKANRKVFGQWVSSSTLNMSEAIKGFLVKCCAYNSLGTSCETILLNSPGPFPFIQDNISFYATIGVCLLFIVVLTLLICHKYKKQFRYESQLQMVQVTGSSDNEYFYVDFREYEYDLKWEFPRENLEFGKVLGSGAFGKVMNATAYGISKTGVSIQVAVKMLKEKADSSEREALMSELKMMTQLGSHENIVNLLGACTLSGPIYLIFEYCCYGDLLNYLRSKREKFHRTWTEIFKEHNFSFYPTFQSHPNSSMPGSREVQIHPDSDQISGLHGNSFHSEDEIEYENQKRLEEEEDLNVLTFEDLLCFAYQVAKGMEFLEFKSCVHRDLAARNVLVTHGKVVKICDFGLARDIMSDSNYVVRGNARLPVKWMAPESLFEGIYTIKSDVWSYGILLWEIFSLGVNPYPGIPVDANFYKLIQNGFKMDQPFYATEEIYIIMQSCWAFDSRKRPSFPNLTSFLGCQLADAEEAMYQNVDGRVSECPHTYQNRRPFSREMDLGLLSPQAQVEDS
Description: FLT3-ITD recombinant enzyme kinase assay (AlphaScreen). It counts as biochemical. Conditions: 8 pt; read-out: FLT3_ITD 8 pt: IC50. The method, then:
In order to determine the effect of compounds on FLT3 catalytic activity, kinase assays using recombinant enzymes and AlphaScreen® technology have been established. The catalytic activity of c-kit activity was also measured to determine selectivity of the compounds. When the kinases are catalytically active, they phosphorylate a biotinylated peptide substrate on tyrosine residues. Using AlphaScreen® technology, the ability of the compounds to affect the catalytic activity of the kinases can be measured quantitatively. The peptide substrate is immobilized by the AlphaScreen® Streptavidin Donor beads and, upon phosphorylation by a tyrosine kinase, can bind to AlphaScreen® Anti-Phosphotyrosine (PY20) Acceptor beads. Upon excitation of these beads with laser light at 680 nm, singlet oxygen is produced. This singlet oxygen is rapidly quenched, unless the AlphaScreen® Anti-Phosphotyrosine (PY20) Acceptor beads are in close proximity, in which case a proximity signal can be measured at 580 nm. In the presence of catalytic activity, there is a very strong proximity signal. Selective kinase inhibitors affect a decrease in this proximity signal through a decrease in tyrosine phosphorylation of the peptide substrate.
The assay was performed as summarized below.
Poly (Glu4-Tyr) Peptide, biotin conjugate [Biotin-GG(EEEEY)10EE] (SEQ ID NO: 4)
Final concentration=30 nM
Adenosine Triphosphate (ATP)
Final concentration for IC50 determination=10 μM (FLT3-D835Y or FLT3-ITD) or 100 μM (c-KIT)
AlphaScreen® Phosphotyrosine (PY20) Assay Kit
Final concentration=10 μg/mL
Dilute compounds in DMSO to 20× final concentration.
Add 1 μL of compound to each well of 384 well reaction plate (Perkin Elmer #6005359).
Mix enzyme and Poly (Glu4-Tyr) Peptide substrate at 1.33× final concentration in assay buffer.
Mix ATP at 5× final concentration in assay buffer.
Add 15 μL enzyme/substrate mixture to the reaction plate.
Add 4 μL of ATP to the reaction plate.
Mix Streptavidin Donor beads at 6× final concentration in Stop/Detection buffer.
Add 5 μL Streptavidin Donor beads to the reaction plate. Centrifuge 1 minute, shake to mix, and incubate at room temperature for 20 minutes.
Mix Anti-Phosphotyrosine (PY20) Acceptor beads at 6× final concentration in Stop/Detection buffer.
Add 5 μL Anti-Phosphotyrosine (PY20) beads to the reaction plate.
Centrifuge 1 minute, shake to mix, and incubate at room temperature for 60 minutes.
Read plate on Wallac EnVision™ 2103 Multilabel Reader.

As for `Cn1cc(Nc2ncc(-c3ccc(CC(=O)Nc4cccc(OC(F)(F)F)c4)cc3)cn2)cn1` [Compound P-0157, 2-[4-[2-[(1-methylpyrazol-4-yl)amino]pyrimidin-5-yl]phenyl]-N-[3-(trifluoromethoxy)phenyl]acetamide], the IC50 (in assay [1]; on FLT3-ITD) was 0.0001 to 10 µM in each case.
With `Cn1cc(Nc2ncc(-c3ccc(CC(=O)Nc4cnc(F)c(C(C)(F)F)c4)c(F)c3)cn2)cn1` [Compound P-0105, N-[5-(1,1-difluoroethyl)-6-fluoro-3-pyridyl]-2-[2-fluoro-4-[2-[(1-methylpyrazol-4-yl)amino]pyrimidin-5-yl]phenyl]acetamide], the IC50 (in assay [1]; at FLT3-ITD) was 0.0001 to 10 µM each time.
On to `Cc1ncc(NC(=O)Cc2ccc(-c3cnc(Nc4cnn(C)c4)nc3)cc2)cc1C(F)(F)F` [Compound P-0140, 2-[4-[2-[(1-methylpyrazol-4-yl)amino]pyrimidin-5-yl]phenyl]-N-[6-methyl-5-(trifluoromethyl)-3-pyridyl]acetamide], for which the IC50 (in assay [1]; on FLT3-ITD) was 0.0001 to 10 µM throughout.
For the molecule `N#Cc1cc(-c2cc3cc(-c4ccc(CC(=O)Nc5cncc(C(F)(F)F)c5)cc4F)cnc3[nH]2)ccn1` [Compound P-0199, 2-[4-[2-(2-cyano-4-pyridyl)-1H-pyrrolo[2,3-b]pyridin-5-yl]-3-fluoro-phenyl]-N-[5-(trifluoromethyl)-3-pyridyl]acetamide], the IC50 (in assay [1]; on FLT3-ITD) was 0.0001 to 10 µM each time.
With `Cn1cc(Nc2ncc(-c3ccc(CC(=O)Nc4cnc(Cl)c(C(F)(F)F)c4)cc3)cn2)cn1` [Compound P-0145, N-[6-chloro-5-(trifluoromethyl)-3-pyridyl]-2-[4-[2-[(1-methylpyrazol-4-yl)amino]pyrimidin-5-yl]phenyl]acetamide], the IC50 (in assay [1]; on FLT3-ITD) was 0.0001 to 10 µM in each case.
`CCn1cc(Nc2ncc(-c3ccc(CC(=O)Nc4cncc(C(F)(F)F)c4)cc3)cn2)cn1` [Compound P-0166, 2-[4-[2-[(1-ethylpyrazol-4-yl)amino]pyrimidin-5-yl]phenyl]-N-[5-(trifluoromethyl)-3-pyridyl]acetamide]: the half-maximal inhibitory concentration (IC50) (in assay [1]; at FLT3-ITD) was 0.0001 to 10 µM in each case.
`COCCn1cc(Nc2ncc(-c3ccc(CC(=O)Nc4cnc(C)c(C(F)(F)F)c4)cc3)cn2)cn1` [Compound P-0179, 2-[4-[2-[[1-(2-methoxyethyl)pyrazol-4-yl]amino]pyrimidin-5-yl]phenyl]-N-[6-methyl-5-(trifluoromethyl)-3-pyridyl]acetamide]: the IC50 (in assay [1]; on FLT3-ITD) was 0.0001 to 10 µM throughout.
In the case of `Cn1cc(Nc2ncc(-c3ccc(CC(=O)Nc4cc(Cl)c(C5CC5)cn4)c(F)c3)cn2)cn1` [Compound P-0107, N-(4-chloro-5-cyclopropyl-2-pyridyl)-2-[2-fluoro-4-[2-[(1-methylpyrazol-4-yl)amino]pyrimidin-5-yl]phenyl]acetamide], the IC50 (in assay [1]; on FLT3-ITD) was 0.0001 to 10 µM each time.
Regarding `COc1ncc(NC(=O)Cc2ccc(-c3cnc4[nH]nc(C)c4c3)c(F)c2)cc1C(F)(F)F` [Compound P-0174, 2-[3-fluoro-4-(3-methyl-1H-pyrazolo[3,4-b]pyridin-5-yl)phenyl]-N-[6-methoxy-5-(trifluoromethyl)-3-pyridyl]acetamide], the half-inhibitory concentration (IC50) (in assay [1]; at FLT3-ITD) was 0.0001 to 10 µM throughout.
With `Cn1cc(Nc2ncc(-c3ccc(CC(=O)Nc4ccnc(C(F)(F)F)n4)cc3)cn2)cn1` [Compound P-0137, 2-[4-[2-[(1-methylpyrazol-4-yl)amino]pyrimidin-5-yl]phenyl]-N-[2-(trifluoromethyl)pyrimidin-4-yl]acetamide], the IC50 (in assay [1]; at FLT3-ITD) was 0.0001 to 10 µM throughout.
With `Cn1cc(Nc2ncc(-c3ccc(CC(=O)Nc4ccnc(C5CC5)c4)c(F)c3)cn2)cn1` [Compound P-0098, N-(2-cyclopropyl-4-pyridyl)-2-[2-fluoro-4-[2-[(1-methylpyrazol-4-yl)amino]pyrimidin-5-yl]phenyl]acetamide], the IC50 (in assay [1]; on FLT3-ITD) was 0.0001 to 10 µM each time.
For the molecule `Cn1cc(Nc2ncc(-c3ccc(CC(=O)Nc4ccc(C(F)(F)F)cn4)c(F)c3)cn2)cn1` [Compound P-0106, 2-[2-fluoro-4-[2-[(1-methylpyrazol-4-yl)amino]pyrimidin-5-yl]phenyl]-N-[5-(trifluoromethyl)-2-pyridyl]acetamide], the IC50 (in assay [1]; at FLT3-ITD) was 0.0001 to 10 µM each time.
`Cn1cc(Nc2ncc(-c3ccc(CC(=O)Nc4cncc(C(C)(F)F)c4)cc3)cn2)cn1` [Compound P-0144, N-[5-(1,1-difluoroethyl)-3-pyridyl]-2-[4-[2-[(1-methylpyrazol-4-yl)amino]pyrimidin-5-yl]phenyl]acetamide]: the IC50 (in assay [1]; at FLT3-ITD) was 0.0001 to 10 µM in each case.
As for `COc1cncc(NC(=O)Cc2ccc(-c3cnc(Nc4cnn(C)c4)nc3)cc2)c1` [Compound P-0133, N-(5-methoxy-3-pyridyl)-2-[4-[2-[(1-methylpyrazol-4-yl)amino]pyrimidin-5-yl]phenyl]acetamide], the IC50 (in assay [1]; at FLT3-ITD) was 0.0001 to 10 µM each time.
With `Cn1cc(Nc2ncc(-c3ccc(CC(=O)Nc4ccc(C(F)(F)F)cn4)cc3)cn2)cn1` [Compound P-0109, 2-[4-[2-[(1-methylpyrazol-4-yl)amino]pyrimidin-5-yl]phenyl]-N-[5-(trifluoromethyl)-2-pyridyl]acetamide], the IC50 (in assay [1]; at FLT3-ITD) was 0.0001 to 10 µM in each case.
Regarding `CC(C)c1cc(NC(=O)Cc2ccc(-c3cnc(Nc4cnn(C)c4)nc3)cc2F)ccn1` [Compound P-0094, 2-[2-fluoro-4-[2-[(1-methylpyrazol-4-yl)amino]pyrimidin-5-yl]phenyl]-N-(2-isopropyl-4-pyridyl)acetamide], the concentration for half-maximal inhibition (IC50) (in assay [1]; at FLT3-ITD) was 0.0001 to 10 µM each time.
In the case of `Cc1ncc(NC(=O)Cc2cc(F)c(-c3cnc4[nH]nc(C)c4c3)cc2F)cc1C(F)(F)F` [Compound P-0175, 2-(2,5-difluoro-4-(3-methyl-1H-pyrazolo[3,4-b]pyridin-5-yl)phenyl)-N-(6-methyl-5-(trifluoromethyl)pyridin-3-yl)acetamide], the IC50 (in assay [1]; at FLT3-ITD) was 0.0001 to 10 µM throughout.
As for `Cn1cc(Nc2ncc(-c3ccc(CC(=O)Nc4ccc(C(C)(C)C#N)nc4)cc3)cn2)cn1` [Compound P-0146, N-[6-(1-cyano-1-methyl-ethyl)-3-pyridyl]-2-[4-[2-[(1-methylpyrazol-4-yl)amino]pyrimidin-5-yl]phenyl]acetamide], the half-inhibitory concentration (IC50) (in assay [1]; on FLT3-ITD) was 0.0001 to 10 µM each time.
